Source: the NIST ThermoML archive (doi:10.1016/j.jct.2009.11.011)

Legend:
[1] = Liquid; for mass density: Vibrating tube method; for vapor or sublimation pressure: Ebulliometric method (Recirculating still)
[2] = molar heat capacity at saturation pressure; settings: Liquid

c1ccc2c(c1)ccc1cccnc12 [benzo[h]quinoline]
Settings	mass density [kg/m3]	molar heat capacity [J/K/mol]
[1], 348.13 K	1121.1	–
[1], 373.12 K	1104.9	–
[1], 398.12 K	1087.2	–
[1], 423.11 K	1068.1	–
[1], 448.11 K	1051.1	–
[1], 473.11 K	1030.8	–
[1], 498.11 K	1011.6	–
[1], 523.11 K	992.8	–
[2], 400 K	–	307.8
[2], 410 K	–	312.9
[2], 420 K	–	317.9
[2], 430 K	–	323.1
[2], 440 K	–	328.2
[2], 450 K	–	333.3
[2], 460 K	–	338.4
[2], 470 K	–	343.5
[2], 480 K	–	348.5
[2], 490 K	–	353.5
[2], 500 K	–	358.4
[2], 510 K	–	363.3
[2], 520 K	–	368.1
[2], 530 K	–	372.7
[2], 540 K	–	377.2
[2], 550 K	–	381.6
[2], 560 K	–	385.8
[2], 570 K	–	389.7
[2], 580 K	–	393.4
[2], 590 K	–	396.9
[2], 600 K	–	400

c1ccc2c(c1)cnc1ccccc12 [phenanthridine]
Settings	mass density [kg/m3]	molar heat capacity [J/K/mol]	vapor or sublimation pressure [kPa]
[1], 423.11 K	1081.8	–	–
[1], 448.11 K	1062.7	–	–
[1], 473.11 K	1043.7	–	–
[1], 473.89 K	–	–	2
[1], 481.92 K	–	–	2.666
[1], 493.84 K	–	–	4
[1], 498.11 K	1023.7	–	–
[1], 502.72 K	–	–	5.333
[1], 515.93 K	–	–	7.999
[1], 523.11 K	1003.9	–	–
[1], 525.85 K	–	–	10.67
[1], 533.86 K	–	–	13.33
[1], 542.18 K	–	–	16.66
[1], 548.11 K	983.7	–	–
[1], 549.09 K	–	–	19.93
[1], 558.18 K	–	–	25.02
[1], 567.34 K	–	–	31.18
[1], 576.54 K	–	–	38.56
[1], 585.79 K	–	–	47.38
[1], 595.1 K	–	–	57.82
[1], 604.47 K	–	–	70.12
[1], 613.89 K	–	–	84.53
[1], 623.35 K	–	–	101.33
[2], 400 K	–	314.5	–
[2], 410 K	–	319.1	–
[2], 420 K	–	323.8	–
[2], 430 K	–	328.3	–
[2], 440 K	–	332.9	–
[2], 450 K	–	337.4	–
[2], 460 K	–	341.8	–
[2], 470 K	–	346.2	–
[2], 480 K	–	350.6	–
[2], 490 K	–	354.9	–
[2], 500 K	–	359.2	–
[2], 510 K	–	363.4	–
[2], 520 K	–	367.6	–
[2], 530 K	–	371.7	–
[2], 540 K	–	375.7	–
[2], 550 K	–	379.7	–
[2], 560 K	–	383.7	–
[2], 570 K	–	387.6	–
[2], 580 K	–	391.4	–
[2], 590 K	–	395.2	–
[2], 600 K	–	398.8	–
